This is an account of results in ChEMBL document CHEMBL5385882, “Rational design and appraisal of selective Cdc2-Like kinase 1 (Clk1) inhibitors as novel autophagy inducers for the treatment of acute liver injury (ALI)” (Eur J Med Chem, 2023).

The target in data set [1] is T1, Dual specificity tyrosine-phosphorylation-regulated kinase 1A (Homo sapiens, UniProt Q13627). Briefly: Inhibition of human full length recombinant DYRK1A assessed as remaining activity using RRRFRPASPLRGPP as substrate at 100 nM by [gamma-32P]ATP binding based scintillation counting based analysis relative to control.
Data set [2] deals with T2, Dual specificity protein kinase CLK1 (Homo sapiens, UniProt P49759). As to the kind of experiment: Inhibition of human 130-end recombinant CLK1 assessed as remaining activity using ERMRPRKRQGSVR as substrate by [gamma-32P]ATP binding based scintillation counting based analysis.
Target sequence in this assay (P49759 whole entry): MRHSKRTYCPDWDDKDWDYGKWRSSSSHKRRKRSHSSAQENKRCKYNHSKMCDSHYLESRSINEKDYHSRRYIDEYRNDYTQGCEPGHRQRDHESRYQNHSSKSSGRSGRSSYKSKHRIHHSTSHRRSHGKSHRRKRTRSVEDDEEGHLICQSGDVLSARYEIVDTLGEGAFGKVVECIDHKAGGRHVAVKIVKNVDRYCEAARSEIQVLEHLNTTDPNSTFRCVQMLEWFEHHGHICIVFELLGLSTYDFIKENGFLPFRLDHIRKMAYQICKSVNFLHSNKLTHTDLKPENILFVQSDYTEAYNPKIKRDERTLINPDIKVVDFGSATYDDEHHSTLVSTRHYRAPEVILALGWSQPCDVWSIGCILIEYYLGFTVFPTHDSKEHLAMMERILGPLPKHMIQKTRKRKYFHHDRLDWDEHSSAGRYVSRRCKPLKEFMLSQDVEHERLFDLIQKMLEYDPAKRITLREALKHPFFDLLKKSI
Data set [3] has as its target T2, Dual specificity protein kinase CLK1. As to the kind of experiment: Inhibition of human 130-end recombinant CLK1 assessed as remaining activity using ERMRPRKRQGSVR as substrate at 100 nM by [gamma-32P]ATP binding based scintillation counting based analysis relative to control.
Target sequence in this assay (P49759 whole entry, looked up): as the sequence (P49759 whole entry) above
The target of data set [4] is T1, Dual specificity tyrosine-phosphorylation-regulated kinase 1A. Briefly: Inhibition of human full length recombinant DYRK1A assessed as remaining activity using RRRFRPASPLRGPP as substrate by [gamma-32P]ATP binding based scintillation counting based analysis.
Data set [5] in a line: Metabolic stability in human liver microsomes assessed as clearance at 10 uM incubated for 5 mins in the presence of NADPH-generating system by LC-MS/MS analysis. Type of data set: ADME, Microsome.
For another data set, the species on record is Homo sapiens. As to the kind of experiment: Selectivity index, ratio of IC50 for inhibition of human full length recombinant DYRK1A to IC50 for inhibition of human 130-end recombinant CLK1.
The nature of data set [6]: Metabolic stability in human liver microsomes assessed as half life at 10 uM incubated for 5 mins in the presence of NADPH-generating system by LC-MS/MS analysis. Type of data set: ADME, Microsome.

For the compound `Fc1cccc(/C=N/c2cnc3[nH]cc(-c4cncc(F)c4)c3c2)c1`, the values for the Activity in data set [1] and in data set [3] were 74% and 61%, respectively. The IC50 in data set [2] stood at 0.454 µM; in data set [4] it was 0.653 µM.

Take `COc1cncc(-c2c[nH]c3ncc(NC(=O)c4ccc(F)cc4)cc23)c1`: the CLH in data set [5] turned out to be 13.8 mL/min/g. Besides, the Selectivity Index in the data set filed under Homo sapiens is 85.8. The Activity in data set [1] was 81%; in data set [3], 13%. For the same compound, the IC50 in data set [2] came out at 0.024 µM; in data set [4], 2.06 µM. Also, the half-life at 10 µM in data set [6] came to 115 min.

On to `COc1cncc(-c2c[nH]c3ncc(NCc4cc(F)cc(F)c4)cc23)c1`, for which the CLH in data set [5] stood at 88.7 mL/min/g. The Selectivity Index in the data set listed under Homo sapiens came to 82.7. Moreover, the Activity in data set [1] worked out at 81%; in data set [3], 9%. Besides, the IC50 in data set [2] was 0.016 µM; in data set [4], 1.32 µM. Also, the half-life at 10 µM in data set [6] stood at 32.1 min.

In the case of `CN1CCN(c2ccc(CNc3cnc4[nH]cc(-c5cccnc5)c4c3)cc2)CC1`, in the data set listed under Homo sapiens, the Selectivity Index turned out to be 135. The Activity in data set [1] came to 85%; in data set [3] it was 9%. For the same compound, the IC50 in data set [2] worked out at 0.013 µM; in data set [4], 1.75 µM.

On to `COc1ccc(-c2c[nH]c3ncc(NCc4cc(F)cc(F)c4)cc23)cc1`, for which the Selectivity Index in the data set filed under Homo sapiens was 6.5. Besides, the results for the Activity in data set [1] and in data set [3] were 40% and 3%, respectively. Further, the IC50 in data set [2] was found to be 0.015 µM; in data set [4], 0.097 µM.

Regarding `Fc1cc(F)cc(CNc2cnc3[nH]cc(-c4ccc5ccccc5c4)c3c2)c1`, the Activity in data set [1] amounted to 106%; in data set [3], 80%. The results for the IC50 in data set [2] and in data set [4] were 0.476 µM and greater than 5 µM, respectively.

Turning to `COc1cc(Cl)ccc1C(=O)Nc1cnc2[nH]cc(-c3cncc(F)c3)c2c1`, the CLH in data set [5] is less than 12 mL/min/g. For the same compound, the Selectivity Index in the data set filed under Homo sapiens stood at 60.5. The Activity in data set [1] was 92%; in data set [3], 20%. Moreover, the IC50 in data set [2] came out at 0.066 µM; in data set [4], 3.99 µM. Moreover, the half-life at 10 µM in data set [6] is greater than 120 min.

As for `Fc1cc(F)cc(CNc2cnc3[nH]cc(-c4cccnc4)c3c2)c1`, the Selectivity Index in the data set listed under Homo sapiens was 16. The Activity stood at 91% in data set [1] and 12% in data set [3]. The values for the IC50 in data set [2] and in data set [4] were 0.018 µM and 0.288 µM, respectively.

For the compound `CC(C)(C)c1cccc(CNc2cnc3[nH]cc(-c4cccnc4)c3c2)c1`, in the data set listed under Homo sapiens, the Selectivity Index is 21.9. For the same compound, the values for the Activity in data set [1] and in data set [3] were 103% and 27%, respectively. In addition, the IC50 in data set [2] was 0.045 µM; in data set [4], 0.988 µM.

On to `Fc1ccc(/C=N/c2cnc3[nH]cc(-c4cncc(F)c4)c3c2)cc1`, for which the Activity in data set [1] turned out to be 86%; in data set [3], 70%. Besides, the figures for the IC50 in data set [2] and in data set [4] were 0.51 µM and 1.35 µM, respectively.

For `COc1ccc(-c2cnc3ccc(NCc4cc(F)cc(F)c4)cn23)cc1`, the Selectivity Index in the data set listed under Homo sapiens was 0.8. In addition, the values for the Activity in data set [1] and in data set [3] were 91% and 105%, respectively. Further, the IC50 in data set [2] is 0.569 µM; in data set [4], 0.465 µM.

`FC(F)(F)c1cccc(CNc2cnc3[nH]cc(-c4cccnc4)c3c2)c1`: in the data set filed under Homo sapiens, the Selectivity Index was 15.3. Moreover, the Activity in data set [1] came to 96%; in data set [3] it was 18%. The values for the IC50 in data set [2] and in data set [4] were 0.045 µM and 0.689 µM, respectively.

For `O=C(Nc1cnc2[nH]cc(-c3cccnc3)c2c1)c1ccc(C(F)(F)F)c(F)c1`, in the data set listed under Homo sapiens, the Selectivity Index was 41. The figures for the Activity in data set [1] and in data set [3] were 87% and 45%, respectively. The results for the IC50 in data set [2] and in data set [4] were 0.089 µM and 3.65 µM, respectively.

`O=C(Nc1cnc2[nH]cc(-c3cncc(F)c3)c2c1)c1ccc(F)cc1`: the CLH in data set [5] was less than 12 mL/min/g. The Selectivity Index in the data set listed under Homo sapiens was determined as 45.3. Also, the results for the Activity in data set [1] and in data set [3] were 83% and 37%, respectively. Also, the results for the IC50 in data set [2] and in data set [4] were 0.064 µM and 2.9 µM, respectively. In addition, the half-life at 10 µM in data set [6] is greater than 120 min.

As for `COc1cncc(-c2c[nH]c3ncc(NCc4cccc(F)c4)cc23)c1`, in data set [5], the CLH worked out at 80.4 mL/min/g. In the data set listed under Homo sapiens, the Selectivity Index was determined as 119. The figures for the Activity in data set [1] and in data set [3] were 89% and 2%, respectively. The IC50 in data set [2] is 0.017 µM; in data set [4], 2.03 µM. The half-life at 10 µM in data set [6] worked out at 19.5 min.

Turning to `CCN(CC)c1ccc(CNc2cnc3[nH]cc(-c4cccnc4)c3c2)cc1`, the Selectivity Index in the data set filed under Homo sapiens was 22.4. For the same compound, the Activity in data set [1] is 98%; in data set [3], 33%. The results for the IC50 in data set [2] and in data set [4] were 0.07 µM and 1.56 µM, respectively.

As for `Fc1cccc(CNc2cnc3[nH]cc(-c4cccnc4)c3c2)c1`, the Selectivity Index in the data set listed under Homo sapiens was found to be 31.6. For the same compound, the Activity in data set [1] is 98%; in data set [3] it was 4%. Also, the IC50 in data set [2] amounted to 0.015 µM; in data set [4] it was 0.475 µM.

In the case of `Fc1cc(F)cc(CNc2cnc3[nH]cc(C4=CCCCC4)c3c2)c1`, the values for the Activity in data set [1] and in data set [3] were 99% and 74%, respectively. The IC50 came to 0.324 µM in data set [2] and 2.46 µM in data set [4].

With `O=C(Nc1cnc2[nH]cc(-c3cccnc3)c2c1)c1ccc(F)cc1`, the Selectivity Index in the data set filed under Homo sapiens was 72.6. In addition, the Activity stood at 90% in data set [1] and 30% in data set [3]. Further, the IC50 in data set [2] was 0.031 µM; in data set [4] it was 2.25 µM.

Turning to `Fc1cc(F)cc(CNc2cnc3[nH]cc(-c4cc5ccccc5s4)c3c2)c1`, the Activity in data set [1] stood at 108%; in data set [3], 65%. The IC50 is 0.252 µM in data set [2] and 2.21 µM in data set [4].

As for `COc1cncc(-c2c[nH]c3ncc(NCc4ccc(N5CCOCC5)cc4)cc23)c1`, the CLH in data set [5] is 65.4 mL/min/g. The Selectivity Index in the data set listed under Homo sapiens was determined as 63.2. For the same compound, the Activity in data set [1] came to 85%; in data set [3], 16%. Moreover, the concentration for half-maximal inhibition (IC50) in data set [2] was 0.03 µM; in data set [4], 1.9 µM. Besides, the half-life at 10 µM in data set [6] turned out to be 21.2 min.

With `COc1ccc(-c2cnc3ccc(NCc4ccc(F)cc4)cn23)cc1`, the results for the Activity in data set [1] and in data set [3] were 110% and 91%, respectively.

On to `O=C(Nc1cnc2[nH]cc(-c3cncc(F)c3)c2c1)c1ccco1`, for which the figures for the Activity in data set [1] and in data set [3] were 88% and 64%, respectively. For the same compound, the IC50 is 0.389 µM in data set [2] and 3.01 µM in data set [4].

For `Nc1ncc(-c2c[nH]c3ncc(NCc4cc(F)cc(F)c4)cc23)cn1`, the Selectivity Index in the data set listed under Homo sapiens is 7.8. Moreover, the figures for the Activity in data set [1] and in data set [3] were 102% and 26%, respectively. For the same compound, the values for the IC50 in data set [2] and in data set [4] were 0.075 µM and 0.59 µM, respectively.

For the compound `NC(=O)c1cccc(-c2c[nH]c3ncc(NCc4cc(F)cc(F)c4)cc23)c1`, the Activity stood at 105% in data set [1] and 89% in data set [3]. In addition, the IC50 in data set [2] is 0.762 µM; in data set [4], greater than 5 µM.

Take `COc1ccc(-c2cnc3ccc(NCc4ccc(N(C)C)cc4)cn23)cc1`: the Activity in data set [1] amounted to 101%; in data set [3], 103%.

On to `CCCc1ccc(-c2c[nH]c3ncc(NCc4cc(F)cc(F)c4)cc23)cc1`, for which the Activity in data set [1] amounted to 111%; in data set [3] it was 85%.

Consider `O=C(Nc1cc(C(F)(F)F)cc(C(F)(F)F)c1)Nc1cnc2[nH]cc(-c3cncc(F)c3)c2c1`, for which the Activity in data set [1] was 106%; in data set [3], 88%. In addition, the figures for the IC50 in data set [2] and in data set [4] were 1.87 µM and 5.68 µM, respectively.

For the compound `O=S(=O)(Nc1cnc2[nH]cc(-c3cncc(F)c3)c2c1)c1ccc(F)cc1`, the values for the Activity in data set [1] and in data set [3] were 94% and 70%, respectively. Also, the IC50 is 0.667 µM in data set [2] and 3.66 µM in data set [4].

Take `Nc1ccc(-c2c[nH]c3ncc(NCc4cc(F)cc(F)c4)cc23)cc1`: the Selectivity Index in the data set listed under Homo sapiens stood at 6.3. Moreover, the Activity in data set [1] worked out at 101%; in data set [3], 36%. The values for the IC50 in data set [2] and in data set [4] were 0.089 µM and 0.561 µM, respectively.

For the compound `COc1cc(Cl)ccc1C(=O)Nc1cnc2[nH]cc(-c3cccnc3)c2c1`, the Selectivity Index in the data set listed under Homo sapiens worked out at 81.4. Further, the values for the Activity in data set [1] and in data set [3] were 84% and 17%, respectively. The IC50 in data set [2] is 0.025 µM; in data set [4], 2.04 µM.

For `COc1ccc(-c2cnc3ccc(NC4CCCC4)cn23)cc1`, the values for the Activity in data set [1] and in data set [3] were 126% and 99%, respectively.

As to `c1cncc(-c2c[nH]c3ncc(NCc4ccc(N5CCOCC5)cc4)cc23)c1`, the Selectivity Index in the data set listed under Homo sapiens worked out at 36.9. Further, the Activity came to 83% in data set [1] and 28% in data set [3]. Moreover, the IC50 in data set [2] is 0.046 µM; in data set [4], 1.7 µM.

As for `CC(C)c1cccc(CNc2cnc3[nH]cc(-c4cccnc4)c3c2)c1`, in the data set listed under Homo sapiens, the Selectivity Index is 117. In addition, the Activity in data set [1] was 108%; in data set [3], 16%. Moreover, the IC50 is 0.023 µM in data set [2] and 2.39 µM in data set [4].

As to `Fc1cc(F)cc(CNc2cnc3[nH]cc(-c4ccc(C(F)(F)F)cc4)c3c2)c1`, the Selectivity Index in the data set listed under Homo sapiens was found to be 1.7. Moreover, the Activity in data set [1] was determined as 108%; in data set [3], 80%. Besides, the IC50 in data set [2] came out at 0.458 µM; in data set [4] it was 0.765 µM.

For `Nc1cccc(-c2c[nH]c3ncc(NCc4cc(F)cc(F)c4)cc23)c1`, the Selectivity Index in the data set listed under Homo sapiens was 5.9. For the same compound, the Activity turned out to be 88% in data set [1] and 28% in data set [3]. Also, the IC50 in data set [2] came to 0.066 µM; in data set [4], 0.389 µM.
